Laboratory results reported in PubChem BioAssay (NCI).
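GI50 = concentration required for 50% inhibition of growth. TGI marks complete inhibition of growth.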

Columns and labels:
Test in all cases: growth of human tumour cells (NCI), 384-well format
[1] = test system: M14 melanoma
[2] = test system: NCI-H322M lung
[3] = test system: SK-MEL-28 melanoma
[4] = test system: COLO 205 colon
[5] = test system: MOLT-4 leukemia
[6] = test system: SF-268 CNS
[7] = test system: RPMI-8226 leukemia
[8] = test system: NCI-H23 lung
[9] = test system: MDA-MB-468 breast
[10] = test system: RXF 393 renal
[11] = test system: U251 glioblastoma
[12] = test system: MCF7 breast
[13] = test system: ACHN renal
[14] = test system: HCT-15 colon
[15] = test system: BT-549 breast
[16] = test system: SK-OV-3 ovarian
[17] = test system: IGROV1 ovarian
[18] = test system: NCI-H522 lung
[19] = test system: SK-MEL-5 melanoma
[20] = test system: OVCAR-3 ovarian
[21] = test system: CAKI-1 renal
[22] = test system: HOP-92 NSCLC
[23] = test system: HCT-116 colon
[24] = test system: HL-60(TB) leukemia
[25] = test system: OVCAR-4 ovarian
[26] = test system: UACC-257 melanoma
[27] = test system: DU-145 prostate
[28] = test system: MALME-3M melanoma
[29] = test system: HT29 colon
[30] = test system: K-562 leukemia
[31] = test system: CCRF-CEM leukemia
[32] = test system: SNB-75 CNS
[33] = test system: SF-539 CNS
[34] = test system: 786-0 renal
[35] = test system: NCI/ADR-RES ovarian
[36] = test system: EKVX NSCLC
[37] = test system: SF-295 CNS
[38] = test system: A549 NSCLC
[39] = test system: NCI-H226 lung
[40] = test system: UO-31 renal
[41] = test system: UACC-62 melanoma
[42] = test system: MDA-MB-435 melanoma
[43] = test system: PC-3 prostate
[44] = test system: T-47D breast
[45] = test system: TK-10 renal
[46] = test system: OVCAR-8 ovarian
[47] = test system: A498 renal
[48] = test system: HOP-62 NSCLC
[49] = test system: NCI-H460 NSCLC
[50] = test system: MDA-MB-231 breast
[51] = test system: SN12C renal
[52] = test system: HS 578T breast
[53] = test system: SNB-19 CNS
[54] = test system: HCC-2998 colon
[55] = test system: OVCAR-5 ovarian
[56] = test system: LOX IMVI melanoma
[57] = test system: SW-620 colon
[58] = test system: KM12 colon

`CCN1CCN(c2ccc(Nc3cc(N(C)C(=O)Nc4c(Cl)c(OC)cc(OC)c4Cl)ncn3)cc2)CC1` gave a GI50 [1] of 1.39 µM, a TGI [1] of 2.69 µM and a GI50 [2] of 2.3 µM. The TGI [2] was 6.25 µM, the GI50 [3] was 1.86 µM and the TGI [3] was 3.28 µM. It also gave a GI50 [4] of 1.94 µM, a TGI [4] of 3.44 µM and a GI50 [5] of 1.17 µM. The TGI [5] was 2.39 µM, the GI50 [6] was 1.11 µM and the TGI [6] was 2.61 µM. For the same molecule, the GI50 [7] was 1.9 µM, the TGI [7] was 3.33 µM and the GI50 [8] was 2.34 µM. It also gave a TGI [8] of 6.21 µM, a GI50 [9] of 1.29 µM and a TGI [9] of 2.61 µM. It also gave a GI50 [10] of 1.29 µM, a TGI [10] of 2.59 µM and a GI50 [11] of 1.46 µM. It also gave a TGI [11] of 2.8 µM, a GI50 [12] of 1.41 µM and a TGI [12] of 2.95 µM. It also gave a GI50 [13] of 1.4 µM, a TGI [13] of 3 µM and a GI50 [14] of 0.688 µM. It also gave a TGI [14] of 2.39 µM, a GI50 [15] of 0.518 µM and a TGI [15] of 1.99 µM. It also gave a GI50 [16] of 0.365 µM, a TGI [16] of 1.36 µM and a GI50 [17] of 0.273 µM. The TGI [17] was 0.702 µM, the GI50 [18] was 0.475 µM and the TGI [18] was 1.46 µM. For the same molecule, the GI50 [19] was 1.3 µM, the TGI [19] was 2.58 µM and the GI50 [20] was 1.04 µM. The TGI [20] was 2.34 µM, the GI50 [21] was 0.59 µM and the TGI [21] was 2.12 µM. It also gave a GI50 [22] of 1.7 µM, a TGI [22] of 3.36 µM and a GI50 [23] of 1.44 µM. It also gave a TGI [23] of 2.8 µM, a GI50 [24] of 1.88 µM and a TGI [24] of 3.3 µM. The GI50 [25] was 1.28 µM, the TGI [25] was 3.36 µM and the GI50 [26] was 1.61 µM. For the same molecule, the TGI [26] was 2.96 µM, the GI50 [27] was 1.76 µM and the TGI [27] was 5.32 µM. It also gave a GI50 [28] of 1.47 µM, a TGI [28] of 2.8 µM and a GI50 [29] of 0.756 µM. For the same molecule, the TGI [29] was 2.02 µM, the GI50 [30] was 0.43 µM and the TGI [30] was 1.48 µM. For the same molecule, the GI50 [31] was 1.58 µM, the TGI [31] was 2.95 µM and the GI50 [32] was 0.193 µM. For the same molecule, the TGI [32] was 2.29 µM, the GI50 [33] was 1.42 µM and the TGI [33] was 2.83 µM. For the same molecule, the GI50 [34] was 1.43 µM, the TGI [34] was 2.76 µM and the GI50 [35] was 2.16 µM. It also gave a TGI [35] of 4.89 µM, a GI50 [36] of 1.19 µM and a TGI [36] of 2.93 µM. It also gave a GI50 [37] of 1.75 µM, a TGI [37] of 3.16 µM and a GI50 [38] of 1.91 µM. It also gave a TGI [38] of 3.85 µM, a GI50 [39] of 0.0246 µM and a TGI [39] of 5.81 µM. It also gave a GI50 [40] of 1.37 µM, a TGI [40] of 2.67 µM and a GI50 [41] of 1.72 µM. It also gave a TGI [41] of 3.13 µM, a GI50 [42] of 1.88 µM and a TGI [42] of 3.34 µM. It also gave a GI50 [43] of 2.04 µM, a TGI [43] of 4.95 µM and a GI50 [44] of 0.453 µM. It also gave a TGI [44] of 1.42 µM, a GI50 [45] of 1.55 µM and a TGI [45] of 3.44 µM. It also gave a GI50 [46] of 1.77 µM, a TGI [46] of 3.38 µM and a GI50 [47] of 0.478 µM. The TGI [47] was 1.92 µM, the GI50 [48] was 1.91 µM and the TGI [48] was 3.93 µM. The GI50 [49] was 1.23 µM, the TGI [49] was 2.53 µM and the GI50 [50] was 2.13 µM. For the same molecule, the TGI [50] was 4.72 µM, the GI50 [51] was 0.753 µM and the TGI [51] was 2.2 µM. It also gave a GI50 [52] of 1.19 µM, a TGI [52] of 2.5 µM and a GI50 [53] of 2.5 µM. The TGI [53] was 7.51 µM, the GI50 [54] was 1.92 µM and the TGI [54] was 3.89 µM. It also gave a GI50 [55] of 2.18 µM, a TGI [55] of 5.14 µM and a GI50 [56] of 1.66 µM. For the same molecule, the TGI [56] was 3.06 µM, the GI50 [57] was 1.84 µM and the TGI [57] was 3.47 µM. For the same molecule, the GI50 [58] was 2.23 µM and the TGI [58] was 4.3 µM.
